Experimental data from patent publication US20120302609A1, “Pyrazolines for the Modulation of PKM2” (Dynamix Pharmaceuticals LTD., priority 2011, published 2012).

Tests used:
HT-29 xenograft = HT-29 xenograft mouse model, tumor efficacy; assay type: in vivo; conditions: i.p.
Protocol: This example illustrates the efficacy and safety of a compound according to embodiments of the present invention, i.e., Compound 1A, using a HT-29 xenograft mouse model (a colorectal cancer model).
The HT-29 cells were maintained in vitro as a monolayer culture in McCoy's 5A medium supplemented with 10% heat inactivated fetal bovine serum, 100 U/ml penicillin and 100 μg/ml streptomycin at 37° C. in an atmosphere of 5% CO2 in air. The tumor cells were routinely subcultured twice weekly by trypsin-EDTA treatment. The cells growing in an exponential growth phase were harvested and counted for tumor inoculation.
65 mice were inoculated subcutaneously at the right flank with 3.0×10^6 HT-29 tumor cells in 0.1 ml of serum-free medium for tumor development. The treatments were started when the tumor size reached approximately 75 (50-100) mm^3. The test article administration and the animal numbers in each group are shown in the following experiment design Table 5.
The major endpoint was to see if the tumor growth can be delayed or mice can be cured. Tumor size was measured three times weekly in two dimensions using a caliper, and the volume was expressed in mm^3 using the formula: V=0.5 a×b^2 where a and b are the long and short diameters of the tumor, respectively. The tumor size was then used for calculations of both T-C and TGI values. T-C was calculated with T as the median time (in days) required for the treatment group tumors to reach a predetermined size (e.g., 1,000 mm^3), and C as the median time (in days) for the control group tumors to reach the same size. The TGI (in percent)=(T−C)/C*100% represents the tumor growth inhibition rate, T and C were the mean volume of the treated and control groups, respectively, on a given day. Tumor weight was measured at the study termination. The T/C value (in percent) was calculated where T and C are the mean tumor weights of the treated and control groups, respectively.

PKR = PKR (Homo sapiens, UniProt P30613); experiment: Isoform selectivity of pyruvate kinases; assay type: biochemical
[1] = H1299 nude mouse xenograft study, toxicity (body weight, deaths, organ weights); assay type: in vivo, mice; conditions: mouse, in vivo, ip; for Deaths NTR: female, nude (nu/nu)
Protocol: The animals were fed ad libitum water (reverse osmosis, 1 ppm Cl) and NIH 31 Modified and Irradiated Lab Diet® consisting of 18.0% crude protein, 5.0% crude fat, and 5.0% crude fiber. The mice were housed on irradiated Enrich-o′ Cobs™ Laboratory Animal Bedding in static microisolators on a 12-hour light cycle at 20-22° C. (68-72° F.) and 40-60% humidity.
Dosing began on D1 in four groups of mice (n=12/group in Groups 1, 3, and 4; n=6 in Group 2). XT26 and its vehicle were administered intraperitoneally (i.p.) twice daily for 28 days (b.i.d.×28), starting with the p.m. dose on D1 and ending with the a.m. dose on D29. Gemcitabine was administered i.p. once daily at three-day intervals for four doses (q3d×4). In all groups, the dosing volume of 10 ml/kg (0.2 ml/20 g mouse) was scaled to the weight of each individual animal, as measured twice weekly.
Group 1 mice received the XT26 vehicle b.i.d.×28, and served as the controls for the study. Group 2 received gemcitabine at 120 mg/kg. Group 3 was to receive XT26 at 100 mg/kg b.i.d.×28; on D21, four mice (Animals 1, 3, 4, and 5) erroneously received 200 mg/kg XT26 for their a.m. dose. Group 4 was to receive XT26 at 200 mg/kg b.i.d.×28, but dosing stopped on D9 (b.i.d.×8) because of toxicity. Group 4 dosing at 200 mg/kg resumed on D17 on a qd (once daily)×13 dosing schedule. Because of a scheduling error, the D19 dose for Group 4 mice was omitted; qd dosing occurred on Days 17, 18, and 20-28.
Animals were weighed daily on D1-5, then twice weekly until the completion of the study. The mice were observed frequently for overt signs of any adverse, treatment-related side effects.
On D10, both kidneys and the liver were harvested from each euthanized Group 4 animal. Each organ was weighed separately, fixed overnight in 10% neutral buffered formalin, and transferred to 70% ethanol.

Sequence of PKR (P30613 whole entry, canonical isoform): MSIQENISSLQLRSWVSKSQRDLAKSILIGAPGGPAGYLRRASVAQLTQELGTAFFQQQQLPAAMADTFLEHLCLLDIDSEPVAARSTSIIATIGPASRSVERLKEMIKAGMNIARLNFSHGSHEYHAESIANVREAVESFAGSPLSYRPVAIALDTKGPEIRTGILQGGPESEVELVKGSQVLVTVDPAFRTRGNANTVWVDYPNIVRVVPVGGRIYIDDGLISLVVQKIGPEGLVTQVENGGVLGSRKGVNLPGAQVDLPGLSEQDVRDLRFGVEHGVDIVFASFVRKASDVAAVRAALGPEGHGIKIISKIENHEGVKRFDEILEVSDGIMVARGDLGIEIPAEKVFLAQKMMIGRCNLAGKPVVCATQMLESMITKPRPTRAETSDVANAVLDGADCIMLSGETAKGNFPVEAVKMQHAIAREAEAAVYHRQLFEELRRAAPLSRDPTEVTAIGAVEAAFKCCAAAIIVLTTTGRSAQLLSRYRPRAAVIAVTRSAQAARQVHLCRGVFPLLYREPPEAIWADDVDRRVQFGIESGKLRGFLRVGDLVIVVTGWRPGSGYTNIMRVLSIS

## CCS(=O)(=O)Nc1ccc(C2=NN(C(C)=O)C(c3ccc(OC)cc3)C2)cc1 (racemic) [Compound 1A, N-(4-(1-acetyl-5-(4-methoxyphenyl)-4,5-dihydro-1H-pyrazol-3-yl)phenyl)ethanesulfonamide]
HT-29 xenograft; 100 mg/kg Q2D
  anti-tumor activity: statistically significantly anti-tumor activity
HT-29 xenograft; 200 mg/kg QD
  anti-tumor activity: statistically significantly anti-tumor activity
  TGI reached by day ten: > 50%
HT-29 xenograft; 400 mg/kg QD, HT-29 xenograft, BALB/c nude mice
  Tumor Growth Inhibition (TGI): 42%
HT-29 xenograft; 400 mg/kg QD
  TGI reached by day ten: > 50%

## COc1ccc([C@@H]2CC(c3ccc(NS(=O)(=O)c4ccc(F)cc4)cc3)=NN2C(C)=O)cc1 [Compound 13A, (S)—N-(4-(1-acetyl-5-(4-methoxyphenyl)-4,5-dihydro-1H-pyrazol-3-yl)phenyl)-4-fluorobenzenesulfonamide]
PKR
  AC50: > 30 µM
[1]; 100 mg/kg, 28 days
  Deaths NTR: 0
[1]; 200 mg/kg
  Deaths NTR: 0
  Mean BW Nadir: −13.6%
